Like-named read-outs stand apart in the source and are kept apart here.

This is an account of results in EP4494632A1, “LIPOPHILIC-BASED COMPOSITION” (Consejo Superior de Investigaciones Científicas (CSIC), priority 2023, dated 2025).

The nature of data set [1]: in vitro. From the text: (§1) Furthermore, porcine skin permeation is studied. As mentioned in the introduction, the barrier structure of the skin differs greatly from that of the mucosae. In this sense, it will be evaluated whether the mucosae modified both by lipophilic compositions and by compositions that mimic the stratum corneum could have a barrier effect similar to that of the skin.
(§2) Next, the main physicochemical properties which are important in permeability through keratin tissues, such as the skin and mucosae, and the classification to which they belong are described in detail. […] Compounds to be evaluated, physicochemical properties, and classification.
(§3) As in the previous TEWL study, sublingual mucosa and porcine skin dermatomized to a thickness of 500-700 µm are used. Kinetic diffusion studies were performed using a vertical diffusion cell (Lara Spiral, Couternon, France (1.86 cm^2 and 3 ml). The receiver fluid (RF) used was PBS:EtOH (1:1). A water bath was set at 43°C to obtain a membrane surface temperature of 32 ± 1°C.
(§4) Subsequently, the drugs are deposited to determine their kinetics. To that end, 300 µl (infinite dose) of the 1% solution of the 4 drugs in methanol were applied to each Franz cell, in triplicate. Aliquots of 0.2 ml were collected at different times (30 min, 1 h, 2 h, 4 h). The active ingredients were diluted in suitable graduated flasks and filtered through a 0.22 µm nylon filter (Cameo, Sigma-Aldrich, St Louis, U. S.A.). They were then further analyzed with a high performance liquid chromatography diode array detector (HPLC-DAD).
(§5) The software used was OpenLab. […] The ICH guidelines were followed to obtain the calibration curve, the limit of quantification (LoQ), and the limit of detection (LoD). The HPLC-DAD analytical conditions and the method for the four active ingredients are described in detail in Table 4.
(§6) The equation is as follows (1): Qn = (Cn × Vc + ∑i = 1^(n−1) (Ci×Vs))/(A) [formula]
(§7) Wherein: Qn is the cumulative amount of active ingredient released at time n (µg/cm^2); Cn is the concentration of active ingredient in the sample (µg/ml); Vc is the volume of the vertical diffusion cell (7 ml); ∑i = 1^(n−1) Ci [formula] is the sum of the API concentrations (µg/ml) determined at sampling intervals 1 to n-1; Vs is the volume of the sample, and A is the surface area of the sample (1.77 cm^2).
(§8) Two parameters were used, Qn and % API release, to obtain graphs showing absorption and penetration kinetics (Y-axis). Time or its square root (√t) is indicated on the X-axis. […] This step allowed determining the best absorption model to represent the penetration kinetics of the API through the different membranes. The model was obtained with the non-linear regression software STATGRAPHICS plus 5 (Statgraphics Technologies, Inc., Virginia, U. S.A.), and the best equation was selected based on the highest correlation coefficient corrected by the number of degrees of freedom (R2 DoF). Once having defined the model, it was possible to calculate other parameters, such as the flow (J), permeability coefficient (Kp), delay time (TI), maximum concentration (Cmax), maximum time (tmax), and area under the curve (AUC). All results are expressed as mean ± standard deviation (SD).

Data set [2] in a line: in vitro. Conditions: for Permea. coeff., Kp / Cmax at 1 %: pig; for Cmax at 1 %: Conc. Max.
Excerpt: as §1, §2, §3
After 1 h, the TEWL is measured again (Table 3). Table 3. Application of the composition F-MI and evaluation of transepidermal water loss, from the skin, from porcine sublingual mucosa and from the same mucosa modified by applying composition F-MI before applying the drugs.
as §4, §5, §6, §7, §8

For data set [3] the following is noted: BCS group; cited from earlier work.
For data set [4] the following is noted: cited from earlier work.
A short description of data set [5]: Kinetic permeation of biocides using vertical Franz diffusion cells. As for the experimental part:
as §3, §4, §6, §7, §8
(§9) Furthermore, porcine skin permeation is studied. As mentioned in the introduction, the barrier structure of the skin differs greatly from that of the mucosae.
(§10) The biocides evaluated were fungitrol (FUN), propiconazole (PRO), and permethrin (PER) dissolved in ethanol at a concentration of 1% for each active ingredient. […] Table 9. Biocides and their physicochemical properties.
(§11) Table 10. Conditions of the method which are used in HPLC/DAD analysis for fungitrol, propiconazole, and permethrin

Data set [6] is described as follows: in vitro. Here is the method: as §3, §4, §6, §7, §8, §9, §10, §11
The source holds these as a separate data set.

Setting [7] is: skin, 300 µl of 1% solution in methanol.
The mark [8] stands for this setting: sublingual mucosa with F-MI, 1% in ethanol.
Setting [9] is: unmodified sublingual mucosa, 1% in ethanol.

Regarding `Cn1c(=O)c2c(ncn2C)n(C)c1=O` [Caffeine (CAF), Caffeine], the “Area under the curve, AUC” value in the data set “in vitro [1]” turned out to be 0.41±0.27 mg/cm^2. The “Conc. Max., Cmax” value in “in vitro [1]” is 107.23±57.7 3 µg/ml. The “Permea. coeff., Kp” value in the data set “in vitro [1]” (pig) is listed as 6.06±4.12 10^-3cm/h; in the data set “in vitro [2]”, 34.55±6.56 10^-3cm/h; in the data set “in vitro [2]” (1 h), 8.28±2.48 10^-3cm/h. Besides, the “Flow, J” value in the data set “in vitro [1]” (pig, 1 %) worked out at 75.09±51.32 µg/cm^2/h. Further, the “Latency time, LT” value in the data set “in vitro [1]” (pig, 1 %) was 0.65 ± 0.24 h. In addition, the Group in data set [3] is on record as 1.
As for `CC[C@H](C)[C@H]1O[C@]2(CC[C@@H]1C)C[C@@H]1C[C@@H](C/C=C(\C)[C@@H](O[C@H]3C[C@H](OC)[C@@H](O[C@H]4C[C@H](OC)[C@@H](O)[C@H](C)O4)[C@H](C)O3)[C@@H](C)/C=C/C=C3\CO[C@@H]4[C@H](O)C(C)=C[C@@H](C(=O)O1)[C@]34O)O2` [Ivermectin (IVE), Ivermectin], the “Flow, J” value in “in vitro [1]” (setting [7]) is listed as 3.13±0.86 µg/cm^2/h; in the data set “in vitro [2]” (unmodified sublingual mucosa, 1% solution in methanol), 63.75±1.57 µg/cm^2/h. Besides, the “Latency time, LT” value in “in vitro [1]” (setting [7]) amounted to 0.59 ± 0.28 h; in the data set “in vitro [2]” (sublingual mucosa with F-MI (70 µl deposited 1 h before), 1% solution in methanol) it was 0.28 ± 0.02 h. The “permeability through the unmodified mucosa compared to the skin” value in the data set “in vitro [2]” turned out to be 20 times. Further, the Group in data set [3] is given as 4. The “LogP (pH 7.4)” value in data set [4] (drugs, Table 2) is 5.83.
In general, Cmax refers to the highest concentration seen after dosing. As for `CC(C)Cc1ccc(C(C)C(=O)O)cc1` (centres unmarked) [Ibuprofen (IBU), Ibuprofen], the “Area under the curve, AUC” value in “in vitro [1]” was determined as 0.10 ± 0.01 mg/cm^2. In “in vitro [1]” (pig), the highest level (Cmax at 1 %) was 21900 ± 1980 ng/mL and the “Permea. coeff., Kp” value is on record as 2.05 ± 0.23 10^-3cm/h. Also, in the data set “in vitro [1]” (pig, 1 %), the “Flow, J” value was determined as 24.79 ± 2.75 µg/cm^2/h and the “Latency time, LT” value is listed as -0.24 ± 0.19 h. In “in vitro [2]”, the “Permea. coeff., Kp” value was 28.67±0.49 10^-3cm/h and the highest concentration (Cmax) at 1 % amounted to 341000 ± 63600 ng/mL. Also, the “Permea. coeff., Kp” value in “in vitro [2]” (1 h) was 41.18±4.09 10^-3cm/h. Besides, the Group in data set [3] was 2.
In the case of `CC1(C)C(C=C(Cl)Cl)C1C(=O)OCc1cccc(Oc2ccccc2)c1` (centres unmarked) [Permethrin (PER), Permethrin], the highest concentration (Cmax) at 1 % in data set [5] (pig) amounted to 9350 ± 110 ng/mL; in the data set “in vitro [6]” (pig) it was 15700 ± 20300 ng/mL. The “Permea. coeff., Kp” value is 0.20±0.015 10^-3cm/h in data set [5] (pig), 4.02±3.12 10^-3cm/h in “in vitro [6]” (pig) and 0.26±0.27 10^-3cm/h in the data set “in vitro [6]” (setting [8]). In addition, the “Flow, J” value is on record as 2.93±0.23 µg/cm^2/h in data set [5] (skin, 1% in ethanol); 3.85±4.00 µg/cm^2/h in the data set “in vitro [6]” (setting [8]); 58.67±45.51 µg/cm^2/h in the data set “in vitro [6]” (setting [9]). The “Latency time, LT” value in data set [5] (skin, 1% in ethanol) is -1.49 ± 0.66 h; in the data set “in vitro [6]” (setting [8]) it was -0.28 ± 1.77 h; in the data set “in vitro [6]” (setting [9]), -0.53 ± 1.14 h. The “LogP (pH 7.4)” value in data set [4] (biocides, Table 9, PubChem) was 6.5.
On to `CCCC1COC(Cn2cncn2)(c2ccc(Cl)cc2Cl)O1` (centres unmarked) [Propiconazole (PRO), Propiconazole], for which the “Permea. coeff., Kp” value is recorded as 0.24±0.16 10^-3cm/h in data set [5] (pig), 0.70±0.39 10^-3cm/h in the data set “in vitro [6]” (setting [8]) and 6.80±4.78 10^-3cm/h in the data set “in vitro [6]” (setting [9]). The “Flow, J” value worked out at 2.26±1.48 µg/cm^2/h in data set [5] (skin, 1% in ethanol); 6.62±3.74 µg/cm^2/h in the data set “in vitro [6]” (setting [8]); 63.92±44.92 µg/cm^2/h in the data set “in vitro [6]” (setting [9]). Besides, the “Latency time, LT” value in data set [5] (skin, 1% in ethanol) was 0.60 ± 0.015 h; in “in vitro [6]” (setting [8]), 1.66 ± 1.00 h; in the data set “in vitro [6]” (setting [9]), -0.04 ± 1.68 h. Besides, the “LogP (pH 7.4)” value in data set [4] (biocides, Table 9, PubChem) was 3.7.
As for `C[C@@H]1C[C@H]2[C@@H]3CCC4=CC(=O)C=C[C@]4(C)[C@@]3(F)[C@@H](O)C[C@]2(C)[C@@]1(O)C(=O)CO` [Dexamethasone (DEX), Dexamethasone], the “Area under the curve, AUC” value in the data set “in vitro [1]” was 0.03±0.01 mg/cm^2. Besides, the peak concentration (Cmax) at 1 % in “in vitro [1]” (pig) stood at 67400 ng/mL; in the data set “in vitro [2]”, 315000 ng/mL. For the same compound, the “Flow, J” value in the data set “in vitro [1]” (pig, 1 %) is 5,84±3,46 µg/cm^2/h. For the same compound, in the data set “in vitro [1]” (pig, 1 %), the “Latency time, LT” value was 0,62±0,16 h. Also, the “LogP (pH 7.4)” value in data set [4] (drugs, Table 2) is listed as 1.74.
Take `CCCCNC(=O)OCC#CI` [Fungitrol (FUN), 3-lodo-2-propynyl butylcarbamate]: in data set [5] (skin, 1% in ethanol), the “Flow, J” value is on record as 6.02±3.93 µg/cm^2/h; the “Latency time, LT” value amounted to 0.70 ± 0.00 h; the “Permea. coeff., Kp” value is reported as 1.00±0.40 10^-3cm/h. Also, in the data set “in vitro [6]” (setting [8]), the “Flow, J” value amounted to 5.59±1.32 µg/cm^2/h; the “Latency time, LT” value came to 0.65 ± 0.08 h; the “Permea. coeff., Kp” value is 0.61±0.14 10^-3cm/h. Moreover, in “in vitro [6]” (setting [9]), the “Flow, J” value stood at 62.88±29.97 µg/cm^2/h; the “Latency time, LT” value was -0.34 ± 1.32 h; the “Permea. coeff., Kp” value is on record as 6.80±3.26 10^-3cm/h. Besides, the “LogP (pH 7.4)” value in data set [4] (biocides, Table 9, PubChem) is 2.4.
